Test results reported in US20230129326A1, “METHODS TO PREVENT SARS-COV-2 INFECTION AND TREAT COVID-19” (priority 2020, published 2023).
In brackets after ≈: the same amount, converted by molar mass.

Key:
[1] = tested on: SARS-CoV-2 pseudovirus entry in ACE2 expressing cells; type: cell-based
[2] = tested on: SARS-CoV-2 isolate USA-WA1/2020; assay: microbe, parasite or virus in culture; type: cell-based; details: Severe acute respiratory syndrome coronavirus 2, A549, read-out: EC50 against SARS-CoV-2 isolate USA-WA1/2020 in A549 overexpressing ACE2

Row | SMILES | level of SARS-CoV-2 pseudovirus entry, varying concentrations (diminazene, cetirizine, labetalol graph) [1] | viral infection (GFP positive cells per image field) [1] | level of SARS-CoV-2 pseudovirus entry, varying concentrations (FIG. 15A) [1] | EC50 [2] [mg/L]
1 | N=C(N)c1ccc(/N=N/Nc2ccc(C(=N)N)cc2)cc1 [diminazene] | significantly lowered the level of SARS-CoV-2 pseudovirus entry | reduced viral infection | – | –
2 | CN(C)CCC(c1ccc(Cl)cc1)c1ccccn1 (centres unmarked) [chlorpheniramine] | – | reduced viral infection | – | –
3 | OCCOCCN1CCN(C(c2ccccc2)c2ccc(Cl)cc2)CC1 (centres unmarked) [hydroxyzine] | – | substantially reduced viral infection | significantly lowered the level of SARS-CoV-2 pseudovirus entry | 27.3 (≈ 72.9 µM)
4 | O=C(O)COCCN1CCN(C(c2ccccc2)c2ccc(Cl)cc2)CC1 (centres unmarked) [cetirizine] | significantly lowered the level of SARS-CoV-2 pseudovirus entry | reduced viral infection | – | –
5 | CN(C)CCOC(c1ccccc1)c1ccccc1 [diphenhydramine] | – | substantially reduced viral infection | – | –
6 | CN1CCCC(n2nc(Cc3ccc(Cl)cc3)c3ccccc3c2=O)CC1 (centres unmarked) [azelastine] | – | substantially reduced viral infection | significantly lowered the level of SARS-CoV-2 pseudovirus entry | –
